According to patent US12655090B2, “Cyclopropylamide compounds against parasites in fish” (Intervet Inc., priority 2021, dated 2026):

What was measured:
[1] = tested on: Copepodids (juvenile sea lice stage of Lepeophtheirus salmonis); assay: Juvenile sea lice contact assay; conditions: approximately 24 hours continuous exposure in seawater, read-out: Sea lice inhibition (% of dead+damaged copepodids); for inhibition at 0.01 µM: test concentration 10 nM; for inhibition at 10 pM: test concentration 0.01 nM; for inhibition at 0.1 µM: test concentration 100 nM; for inhibition at 0.001 µM: test concentration 1 nM
Description: Copepodids (juvenile sea lice stage of Lepeophtheirus salmonis) were exposed to seawater spiked with declining concentrations of a test compound (dissolved in a DMSO sea-water mixture). Sea lice inhibition (% of dead+damaged copepodids) was assessed after approximately 24 hours of continuous exposure. The vitality of used parasites was confirmed in a negative (solvent) control group.

[2] = tested on: Mobile stages of sea lice (pre-adults, adults of Lepeophtheirus salmonis); assay: Adult sea lice contact assay; conditions: assessed after approximately 1 and 24 hours of continuous exposure, read-out: EC50 (sea lice inhibition, dead+damaged sea lice)
Description: Mobile stages of sea lice (i.e., pre-adults, adults of Lepeophtheirus salmonis) were exposed to seawater spiked with declining concentrations of a test compound (dissolved in a PEG sea-water mixture). Sea lice inhibition (% of dead+damaged sea lice) was assessed after approximately 1 and 24 hours of continuous exposure in comparison to a negative (solvent) control group.

Compound: O=C(NCC(F)(F)F)c1cc(NC(=O)C2C(c3cc(Cl)cc(Cl)c3)C2(Cl)Cl)ccc1Cl (racemic) [Compound 1500]
- inhibition at 0.01 µM [1]: ≥ 80%

Compound: O=C(NCCC(F)(F)F)c1cc(NC(=O)C2C(c3ccc(F)c(Cl)c3)C2(Cl)Cl)ccc1Cl (racemic) [Compound 1538]
- inhibition at 10 pM [1]: 100%

Compound: N#CC1(NC(=O)c2cc(NC(=O)C3C(c4cc(Cl)cc(Cl)c4)C3(Cl)Cl)ccc2Cl)CC1 (racemic) [Compound 1515]
- inhibition at 0.01 µM [1]: 100%

Compound: N#CC1(NC(=O)c2cc(NC(=O)C3C(c4ccc(C(F)F)c(Cl)c4)C3(Cl)Cl)ccc2Cl)CC1 (racemic) [Compound 1548]
- EC50 [2]: 10 to 25 nM

Compound: O=C(NC1CC(F)(F)C1)c1cc(NC(=O)C2C(c3cccc(C(F)(F)F)c3)C2(Cl)Cl)ccc1Cl (stereo not drawn) [Compound 1611]
- inhibition at 0.1 µM [1]: 100%

Compound: O=C(NC1CC(F)(F)C1)c1cc(NC(=O)C2C(c3cc(Cl)cc(Cl)c3)C2(Cl)Cl)ccc1Cl (stereo not drawn) [Compound 1531]
- inhibition at 0.01 µM [1]: 100%

Compound: N#CC1(NC(=O)c2cc(NC(=O)C3C(c4cc(F)cc(C(F)F)c4)C3(Cl)Cl)ccc2Cl)CC1 (racemic) [Compound 1547]
- EC50 [2]: 1 to 10 nM
- inhibition at 0.1 µM [1]: 100%

Compound: O=C(NCC(F)(F)F)c1cc(NC(=O)C2C(c3cc(F)c(F)c(F)c3)C2(Cl)Cl)ccc1Cl (racemic) [Compound 1551]
- inhibition at 10 pM [1]: 100%

Compound: Cc1cc(C2C(C(=O)Nc3ccc(Cl)c(C(=O)NC4(C#N)CC4)c3)C2(Cl)Cl)cc(Cl)c1Cl (racemic) [Compound 1514]
- EC50 [2]: 10 to 25 nM
- inhibition at 0.1 µM [1]: 100%

Compound: O=C(NCCF)c1cc(NC(=O)C2C(c3ccc(F)c(Cl)c3)C2(Cl)Cl)ccc1Cl (racemic) [Compound 1536]
- inhibition at 10 pM [1]: 100%

Compound: N#Cc1cc(Cl)cc(C2C(C(=O)Nc3ccc(Cl)c(C(=O)NC4(C#N)CC4)c3)C2(Cl)Cl)c1 (racemic) [Compound 1532]
- EC50 [2]: 10 to 25 nM
- inhibition at 0.1 µM [1]: 100%

Compound: Cc1c(Cl)cc(NC(=O)C2C(c3ccc(F)c(Cl)c3)C2(Cl)Cl)cc1C(=O)NCC(F)(F)F (racemic) [Compound 1561]
- inhibition at 0.01 µM [1]: 100%

Compound: CCNC(=O)c1cc(NC(=O)C2C(c3cc(Cl)cc(Cl)c3)C2(Cl)Cl)ccc1Cl (racemic) [Compound 1509]
- inhibition at 0.01 µM [1]: 100%

Compound: C#CCNC(=O)c1cc(NC(=O)C2C(c3cc(Cl)cc(Cl)c3)C2(Cl)Cl)ccc1F (stereo not drawn) [Compound 1631]
- inhibition at 0.1 µM [1]: 100%

Compound: O=C(NC1COC1)c1cc(NC(=O)C2C(c3cc(Cl)cc(Cl)c3)C2(Cl)Cl)ccc1Cl (racemic) [Compound 1510]
- inhibition at 0.01 µM [1]: 100%

Compound: O=C(NC1CCOC1=O)c1cc(NC(=O)C2C(c3cc(Cl)cc(Cl)c3)C2(Cl)Cl)ccc1Cl (racemic) [Compound 1526]
- inhibition at 0.01 µM [1]: 100%

Compound: CC1(NC(=O)c2cc(NC(=O)C3C(c4cc(Cl)cc(Cl)c4)C3(Cl)Cl)ccc2Cl)CC1 (racemic) [Compound 1523]
- inhibition at 0.001 µM [1]: 80%

Compound: CC(NC(=O)c1cc(NC(=O)C2C(c3cc(F)c(F)c(F)c3)C2(Cl)Cl)ccc1Cl)C(F)(F)F (racemic) [Compound 1602]
- EC50 [2]: 10 to 25 nM
- inhibition at 0.01 µM [1]: 100%

Compound: O=C(NCC(F)(F)F)c1cc(NC(=O)C2C(c3cc(C(F)(F)F)cc(C(F)(F)F)c3)C2(Cl)Cl)ccc1Cl (stereo not drawn) [Compound 1613]
- EC50 [2]: ≤ 1 nM
- inhibition at 0.01 µM [1]: 100%

Compound: O=C(NCC(F)(F)F)c1cc(NC(=O)C2C(c3ccc(F)c(Cl)c3)C2(Cl)Cl)ccc1F (racemic) [Compound 1559]
- inhibition at 10 pM [1]: 100%

Compound: O=C(NC1(C(F)(F)F)CC1)c1cc(NC(=O)C2C(c3cc(F)c(F)c(F)c3)C2(Cl)Cl)ccc1Cl (stereo not drawn) [Compound 1604]
- EC50 [2]: 10 to 25 nM
- inhibition at 0.01 µM [1]: 100%

Compound: N#CC1(NC(=O)c2cc(NC(=O)C3C(c4ccc(F)c(Cl)c4)C3(Cl)Cl)cc(F)c2F)CC1 (stereo not drawn) [Compound 1589]
- EC50 [2]: ≤ 1 nM
- inhibition at 0.001 µM [1]: 80%

Compound: N#CC1(NC(=O)c2cc(NC(=O)C3C(c4cc(F)c(Br)c(F)c4)C3(Cl)Cl)ccc2Cl)CC1 (racemic) [Compound 1544]
- inhibition at 0.1 µM [1]: 100%

Compound: Cc1c(Cl)cc(NC(=O)C2C(c3ccc(F)c(Cl)c3)C2(Cl)Cl)cc1C(=O)NCCCCl (racemic) [Compound 1566]
- inhibition at 0.01 µM [1]: 100%

Compound: O=C(NCCC(F)(F)F)c1c(F)ccc(NC(=O)C2C(c3ccc(F)c(Cl)c3)C2(Cl)Cl)c1F (racemic) [Compound 1573]
- inhibition at 0.01 µM [1]: 100%

Compound: O=C(NCCCCl)c1cc(NC(=O)C2C(c3ccc(F)c(Cl)c3)C2(Cl)Cl)ccc1F (racemic) [Compound 1563]
- inhibition at 10 pM [1]: 100%

Compound: Cc1c(F)cc(NC(=O)C2C(c3ccc(F)c(Cl)c3)C2(Cl)Cl)cc1C(=O)NCC(F)(F)F (racemic) [Compound 1567]
- inhibition at 0.001 µM [1]: 100%

Compound: O=C(NCC(F)(F)F)c1cc(NC(=O)C2C(c3ccc(F)c(Cl)c3)C2(Cl)Cl)cc(Cl)c1F (racemic) [Compound 1570]
- inhibition at 0.01 µM [1]: ≥ 80%

Compound: Cc1cc(Cl)cc(C2C(C(=O)Nc3ccc(Cl)c(C(=O)NC4CC(F)(F)C4)c3)C2(Cl)Cl)c1 (racemic) [Compound 1513]
- inhibition at 0.01 µM [1]: 100%

Compound: N#CC1(NC(=O)c2cc(NC(=O)C3C(c4cc(C(F)(F)F)cc(C(F)(F)F)c4)C3(Cl)Cl)cc(F)c2F)CC1 (stereo not drawn) [Compound 1615]
- EC50 [2]: 1 to 10 nM
- inhibition at 0.01 µM [1]: 100%

Compound: N#CC1(NC(=O)c2cc(NC(=O)C3C(c4ccc(Cl)c(C(F)F)c4)C3(Cl)Cl)ccc2Cl)CC1 (racemic) [Compound 1546]
- EC50 [2]: 10 to 25 nM
- inhibition at 0.1 µM [1]: 100%

Compound: CC(C)(NC(=O)c1cc(NC(=O)C2C(c3cc(F)c(F)c(F)c3)C2(Cl)Cl)ccc1Cl)C(F)(F)F (stereo not drawn) [Compound 1603]
- EC50 [2]: 10 to 25 nM
- inhibition at 0.01 µM [1]: ≥ 80%

Compound: CC1(NC(=O)c2cc(NC(=O)C3C(c4cc(Cl)cc(Cl)c4)C3(Cl)Cl)cc(F)c2F)CC1 (stereo not drawn) [Compound 1616]
- inhibition at 0.1 µM [1]: 100%

Compound: CC(C)CNC(=O)c1cc(NC(=O)C2C(c3cc(Cl)cc(Cl)c3)C2(Cl)Cl)ccc1Cl (racemic) [Compound 1502]
- inhibition at 0.01 µM [1]: 100%

Compound: O=C(NCCC(F)(F)F)c1cc(NC(=O)C2C(c3cc(Cl)cc(Cl)c3)C2(Cl)Cl)cc(Cl)c1Cl (racemic) [Compound 1552]
- inhibition at 0.01 µM [1]: ≥ 80%

Compound: N#CC1(NC(=O)c2cc(NC(=O)C3C(c4cc(Cl)cc(C(F)F)c4)C3(Cl)Cl)ccc2Cl)CC1 (racemic) [Compound 1545]
- EC50 [2]: 10 to 25 nM
- inhibition at 0.1 µM [1]: 100%

Compound: O=C(NC1CC(F)(F)C1)c1cc(NC(=O)C2C(c3cccc(C(F)(F)F)c3)C2(Cl)Cl)ccc1Cl (racemic) [Compound 1508]
- EC50 [2]: 1 to 10 nM
- inhibition at 0.01 µM [1]: 100%

Compound: O=C(NCCF)c1cc(NC(=O)C2C(c3ccc(F)c(Cl)c3)C2(Cl)Cl)ccc1F (racemic) [Compound 1558]
- inhibition at 10 pM [1]: 100%

Compound: O=C(NCC(F)(F)F)c1cc(NC(=O)C2C(c3ccc(F)c(Cl)c3)C2(Cl)Cl)cc(F)c1Cl (racemic) [Compound 1565]
- inhibition at 10 pM [1]: 100%

Compound: C#CCNC(=O)c1cc(NC(=O)C2C(c3cc(Cl)cc(Cl)c3)C2(Cl)Cl)cc(F)c1F (stereo not drawn) [Compound 1629]
- inhibition at 0.1 µM [1]: 100%

Compound: O=C(NCC(F)(F)F)c1cc(NC(=O)C2C(c3ccc(F)c(Cl)c3)C2(Cl)Cl)ccc1Cl (racemic) [Compound 1537]
- inhibition at 0.01 µM [1]: 100%

Compound: C#CCNC(=O)c1cc(NC(=O)C2C(c3cc(C(F)(F)F)cc(C(F)(F)F)c3)C2(Cl)Cl)ccc1Cl (stereo not drawn) [Compound 1614]
- EC50 [2]: ≤ 1 nM
- inhibition at 0.001 µM [1]: 80%

Compound: CCNC(=O)c1cc(NC(=O)C2C(c3cc(Cl)cc(Cl)c3)C2(Cl)Cl)cc(Cl)c1Cl (racemic) [Compound 1553]
- inhibition at 0.01 µM [1]: 100%

Compound: O=C(NCCCCl)c1cc(NC(=O)C2C(c3ccc(F)c(Cl)c3)C2(Cl)Cl)cc(F)c1F (racemic) [Compound 1574]
- inhibition at 0.001 µM [1]: 80%

Compound: N#CC1(NC(=O)c2cc(NC(=O)C3C(c4cc(C(F)(F)F)cc(C(F)(F)F)c4)C3(Cl)Cl)ccc2Cl)CC1 (stereo not drawn) [Compound 1612]
- EC50 [2]: 10 to 25 nM
- inhibition at 0.01 µM [1]: 100%

Compound: O=C(NC1(C(F)(F)F)CC1)c1cc(NC(=O)C2C(c3cc(Cl)cc(Cl)c3)C2(Cl)Cl)ccc1F (stereo not drawn) [Compound 1627]
- inhibition at 0.1 µM [1]: ≥ 80%

Compound: O=C(NCC(F)(F)F)c1cc(NC(=O)C2C(c3ccc(F)c(Cl)c3)C2(Cl)Cl)cc(F)c1F (racemic) [Compound 1554]
- inhibition at 0.01 µM [1]: ≥ 80%

Compound: N#CC1(NC(=O)c2cc(NC(=O)C3C(c4cccc(C(F)F)c4)C3(Cl)Cl)ccc2Cl)CC1 (racemic) [Compound 1549]
- inhibition at 0.1 µM [1]: 100%

Compound: O=C(NCCF)c1cc(NC(=O)C2C(c3cc(Cl)cc(Cl)c3)C2(Cl)Cl)cc(Cl)c1Cl (racemic) [Compound 1539]
- inhibition at 0.01 µM [1]: 100%

Compound: Cc1cc(NC(=O)C2C(c3ccc(F)c(Cl)c3)C2(Cl)Cl)cc(C(=O)NCCCCl)c1Cl (racemic) [Compound 1557]
- inhibition at 0.01 µM [1]: 100%

Compound: O=C(NCC(F)(F)F)c1cc(NC(=O)C2C(c3ccc(F)c(F)c3)C2(Cl)Cl)ccc1Cl (stereo not drawn) [Compound 1591]
- inhibition at 0.1 µM [1]: 100%

Compound: N#CC1(NC(=O)c2cc(NC(=O)C3C(c4ccc(Cl)c(Cl)c4)C3(Cl)Cl)ccc2Cl)CC1 (racemic) [Compound 1501]
- inhibition at 0.01 µM [1]: ≥ 80%
